Reference: patent publication US9255100B2 (BAYER INTELLECTUAL PROPERTY GMBH, priority 2010, dated 2016)

What follows are molecules tested against T1, N-terminally GST-tagged human full length recombinant Mps-1 kinase (Homo sapiens, UniProt P33981) (assay: Mps-1 kinase assay (TR-FRET)). Details: Mps1 IC50 [nM], 10 μM ATP, 1 μM peptide substrate, 60 min at 22° C.
T1 construct: N-terminally GST-tagged human full length recombinant Mps-1 kinase; purchased Invitrogen, Karslruhe, Germany PV4071
T1 sequence (P33981 1-857): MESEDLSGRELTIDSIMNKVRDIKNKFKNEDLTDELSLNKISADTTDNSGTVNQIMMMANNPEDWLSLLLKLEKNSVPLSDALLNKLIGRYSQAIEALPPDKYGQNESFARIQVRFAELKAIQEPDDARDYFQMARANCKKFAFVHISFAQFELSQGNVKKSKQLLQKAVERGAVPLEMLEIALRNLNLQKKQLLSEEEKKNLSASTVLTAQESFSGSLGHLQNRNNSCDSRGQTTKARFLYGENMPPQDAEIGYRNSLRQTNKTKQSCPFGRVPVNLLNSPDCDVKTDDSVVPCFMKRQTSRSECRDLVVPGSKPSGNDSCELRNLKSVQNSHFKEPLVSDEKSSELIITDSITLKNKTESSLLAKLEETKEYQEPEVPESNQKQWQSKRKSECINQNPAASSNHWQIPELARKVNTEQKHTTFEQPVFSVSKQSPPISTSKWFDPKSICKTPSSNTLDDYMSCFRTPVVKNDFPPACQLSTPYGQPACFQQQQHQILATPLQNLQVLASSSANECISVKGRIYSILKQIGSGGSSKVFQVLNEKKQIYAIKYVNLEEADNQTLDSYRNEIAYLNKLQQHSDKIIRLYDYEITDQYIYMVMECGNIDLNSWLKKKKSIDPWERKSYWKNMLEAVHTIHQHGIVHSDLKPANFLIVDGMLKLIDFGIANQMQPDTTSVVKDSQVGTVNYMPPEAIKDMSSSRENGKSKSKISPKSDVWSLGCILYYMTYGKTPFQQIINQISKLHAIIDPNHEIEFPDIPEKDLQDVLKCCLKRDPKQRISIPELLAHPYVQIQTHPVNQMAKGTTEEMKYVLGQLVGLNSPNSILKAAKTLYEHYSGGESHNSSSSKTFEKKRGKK
Format: biochemical
Procedure: The human kinase Mps-1 phosphorylates a biotinylated substrate peptide. Detection of the phosphorylated product is achieved by time-resolved fluorescence resonance energy transfer (TR-FRET) from Europium-labelled anti-phospho-Serine/Threonine antibody as donor to streptavidin labelled with cross-linked allophycocyanin (SA-XLent) as acceptor. Compounds are tested for their inhibition of the kinase activity.
N-terminally GST-tagged human full length recombinant Mps-1 kinase (purchased from Invitrogen, Karslruhe, Germany, cat. no PV4071) was used. As substrate for the kinase reaction a biotinylated peptide of the amino-acid sequence […] (C-terminus in amide form, purchased from Biosynthan GmbH, Berlin) was used.
The concentration of Mps-1 in the assay was adjusted to the activity of the enzyme lot and was chosen appropriate to have the assay in the linear range, typical enzyme concentrations were in the range of about 1 nM (final conc. in the 5 μl assay volume).
The resulting mixture was incubated 1 h at 22° C. to allow the binding of the phosphorylated peptide to the anti-phospho(Ser/Thr)-Europium-antibody. Subsequently the amount of phosphorylated substrate was evaluated by measurement of the resonance energy transfer from the Europium-labelled anti-phospho(Ser/Thr) antibody to the Streptavidin-XLent.

Row | IC50 | Compound
1 | 21.1 nM | Cc1cc(-c2cnc3c(NCC(C)(C)O)cc(NC4CCNC4)nn23)ccc1C(=O)NC1CC1 (racemic) [Example 272, (RS)—N-cyclopropyl-4-{8-[(2-hydroxy-2-methylpropyl)amino]-6-(pyrrolidin-3-ylamino)imidazo[1,2-b]pyridazin-3-yl}-2-methylbenzamide]
2 | 6.9 nM | Cc1cc(-c2cnc3c(NCCCC(C)O)cc(-c4ccccc4CO)nn23)ccc1C(=O)NC1CC1 (racemic) [Example 342, (RS)-N-cyclopropyl-4-{6-[2-(hydroxy-methyl)phenyl]-8-[(4-hydroxy-pentyl)amino]imidazo[1,2-b]pyridazin-3-yl}-2-methylbenzamide]
3 | 4.3 nM | Cc1cc(-c2cnc3c(NCCC(C)CO)cc(-c4ccccc4CO)nn23)ccc1C(=O)NC1CC1 (racemic) [Example 343, (RS)-N-cyclopropyl-4-{8-[(4-hydroxy-3-methylbutyl)amino]-6-[2-(hydroxymethyl)phenyl]imidazo [1,2-b]pyridazin-3-yl}-2-methyl-benzamide]
4 | 3 nM | Cc1cc(-c2cnc3c(NCC4CCOC4)cc(-c4ccccc4CO)nn23)ccc1C(=O)NC1CC1 (racemic) [Example 345, (RS)-N-cyclopropyl-4-{6-[2-(hydroxy-methyl)phenyl]-8-[(tetrahydro-furan-3-ylmethyl)amino]imidazo [1,2-b]pyridazin-3-yl}-2-methyl-benzamide]
5 | 13.7 nM | CC(C)CNc1cc(-c2ccncc2)nn2c(-c3ccc(-c4cnc(C5CC5)[nH]4)cc3)cnc12 [Example 3, 3-[4-(2-Cyclopropyl-1H-imidazol-5-yl)phenyl]-N-isobutyl-6-(pyridin-4-yl) imidazo[1,2-b]pyridazin-8-amine]
6 | 20.6 nM | c1cc(-c2cc(NC[C@@H]3CCCO3)c3ncc(-c4ccc(-c5cnc(C6CC6)[nH]5)cc4)n3n2)ccn1 [Example 4, 3-[4-(2-Cyclopropyl-1H-imidazol-5-yl)phenyl]-6-(pyridin-4-yl)-N-[(2S)-tetrahydrofuran-2-ylmethyl]imidazo[1,2-b]pyridazin-8-amine]
7 | 13.3 nM | c1cc(-c2cc(NC[C@H]3CCCO3)c3ncc(-c4ccc(-c5cnc(C6CC6)[nH]5)cc4)n3n2)ccn1 [Example 5, 3-[4-(2-Cyclopropyl-1H-imidazol-5-yl)phenyl]-6-(pyridin-4-yl)-N-[(2R)-tetrahydrofuran-2-ylmethyl]imidazo[1,2-b]pyridazin-8-amine]
8 | 43.6 nM | Fc1ccc(-c2cc(NCCC(F)(F)F)c3ncc(-c4ccc(-c5cnc(C6CC6)[nH]5)cc4)n3n2)cc1 [Example 6, 3-[4-(2-Cyclopropyl-1H-imidazol-5-yl)phenyl]-6-(4-fluorophenyl)-N-(3,3,3-trifluoropropyl)imidazo[1,2-b]pyridazin-8-amine]
9 | 1.2 nM | Cc1cc(-c2cnc3c(NCC(C)(C)O)cc(-c4ccc(F)cc4)nn23)ccc1C(=O)NC1CC1 [Example 7, N-cyclopropyl-4-{6-(4-fluorophenyl)-8-[(2-hydroxy-2-methylpropyl)amino]imidazo[1,2-b]pyridazin-3-yl}-2-methylbenzamide]
10 | 111 nM | CC(C)(O)CNc1cc(-c2ccc(F)cc2)nn2c(-c3ccc(-c4cnc(C5CC5)[nH]4)cc3)cnc12 [Example 8, 1-({3-[4-(2-Cyclopropyl-1H-imidazol-5-yl)phenyl]-6-(4-fluorophenyl)imidazo[1,2-b]pyridazin-8-yl}amino)-2-methylpropan-2-ol]
11 | 25 nM | CC(C)(O)CNc1cc(-c2ccncc2)nn2c(-c3ccc(-c4cnc(C5CC5)[nH]4)cc3)cnc12 [Example 9, 1-({3-[4-(2-Cyclopropyl-1H-imidazol-5-yl)phenyl]-6-(pyridin-4-yl)imidazo[1,2-b]pyridazin-8-yl}amino)-2-methylpropan-2-ol]
12 | < 1 nM | Cc1cc(-c2cnc3c(NCCC(F)(F)F)cc(-c4ccnn4C)nn23)ccc1C(=O)NC1CC1 [Example 10, N-cyclopropyl-2-methyl-4-{6-(1-methyl-1H-pyrazol-5-yl)-8-[(3,3,3-trifluoropropyl)amino]imidazo[1,2-b]pyridazin-3-yl}benzamide]
